Data published in article PMC4215196 (Journal of nuclear medicine : official publication, Society …, 2009).

Key:
[1] = test system: B16F10 pulmonary metastases; assay: Biodistribution in B16F10 lung metastases bearing mice; details: 2 h p.i.
[2] = In vitro stability in mouse serum; type: in vitro ADME; details: for percentage of intact probe: 37°C
[3] = test system: B16F10 melanoma lung metastases; assay: µPET ROI analysis, B16F10 lung metastases model; details: lungs harboring metastasis
B16F10 cells = assay: In vitro cell uptake in B16F10 cells
A375M tumors = details: µPET
[4] = µPET ROI analysis, normal lung
B16F10 melanoma = assay: Biodistribution in subcutaneous B16F10 tumor bearing mice
B16 melanoma = details: C57BL6 mice bearing B16 melanoma, 24 h; cited from earlier work
[5] = subcutaneous B16F10 tumor bearing mice, 2 h p.i.

CCN(CC)CCNC(=O)c1ccc([18F])cc1 [^18F-FBZA, ^18F-N-[2-(diethylamino)ethyl]-4-fluoro-Benzamide]
Uptake Ratio Lung / Blood ([1]; lung metastases from 0.2 × 10^6 B16F10 cells): 24.7 ± 13.5 | Uptake Ratio Lung / Blood ([1]; lung metastases from 0.4 × 10^6 B16F10 cells): 38.9 ± 10.3 | percentage of intact probe ([2]; 30 min incubation): 94.1% | percentage of intact probe ([2]; 60 min incubation): 93.5% | percentage of intact probe ([2]; 120 min incubation): 87.8% | percentage of intact probe ([2]; 150 min incubation): 85.1% | Defluorination ([2]; up to 150 min): not observed | lung uptake, µPET ROI analysis ([3]; tumor dose 0.4 × 10^6 B16F10 cells): 9.0 ± 0.4 %ID/g | lung uptake, µPET ROI analysis ([3]; tumor dose 0.8 × 10^6 B16F10 cells): 15.3 ± 1.1 %ID/g | cellular accumulation (B16F10 cells; B16F10 cells pretreated with L-tyrosine (2.0 mM) 24 h, 4°C, 30 minutes): 4.5 ± 0.5% | cell uptake (B16F10 cells; B16F10 cells pretreated with L-tyrosine (2.0 mM) 24 h, 37°C, 30 minutes): 10.7 ± 0.8% | cellular accumulation (B16F10 cells; non-treated B16F10 cells, 2-hour incubation, 4 °C): 0.49 ± 0.03% | cellular accumulation (B16F10 cells; non-treated B16F10 cells, 2-hour incubation, 37 °C): 0.52 ± 0.1% | uptake at 4°C less than cellular uptake at 37°C (B16F10 cells; tyrosine stimulated B16F10 cells, 30 minutes): 58% | fold increase of uptake compared to non-treated B16F10 cells (B16F10 cells; tyrosine stimulated cells, 37°C): 18–25 fold | tumor uptake, PET ROI analysis (A375M tumors): 0.86 ± 0.03 %ID/g | lung uptake, µPET ROI analysis [4]: 1.2 ± 0.2 %ID/g | tumor to brain ratio (B16F10 melanoma; B16F10 model, 1 h): 5.14 ± 1.10 | lung-to-blood ratio (B16F10 melanoma; B16F10 subcutaneous tumor bearing mice, 2 h): 4.72 ± 0.46 | Uptake Ratio Tumor / Blood (B16F10 melanoma; [5]): 34.0 ± 13.2 | Uptake Ratio Tumor / Muscle (B16F10 melanoma; [5]): 23.3 ± 10.1

CCN(CC)CCNC(=O)c1ccc([125I])cc1 [^125I-BZA, N-(2-diethylaminoethy1)-4-^125I-iodo-benzamide]
tumor-to-blood ratio (B16 melanoma): 37.3 ± 6.9
